Laboratory results taken from PubChem BioAssay AID1259407 (Chemical Carcinogenesis Research Information System (CCRIS), 2018).
Activity calls are given as the source filed them. How the calls were made is not given here.

Tested on: CCRIS mutagenicity, Ames/micronucleus/aberration tests
Test: CCRIS mutagenicity studies
[1] = Test System: AMES SALMONELLA TYPHIMURIUM, Strain/Indicator: TA98, Metabolic Activation: NONE, Method: STANDARD PLATE
[2] = Test System: AMES SALMONELLA TYPHIMURIUM, Strain/Indicator: TA100, Metabolic Activation: NONE, Method: STANDARD PLATE
[3] = Test System: MOUSE LYMPHOMA, Strain/Indicator: L5178Y (TK+/TK-), Metabolic Activation: NONE, Method: SUSPENSION/PLATE
[4] = Test System: MOUSE LYMPHOMA, Strain/Indicator: L5178Y (TK+/TK-), Metabolic Activation: RAT, LIVER, S-9, AROCLOR 1254, Method: SUSPENSION/PLATE
[5] = Test System: AMES SALMONELLA TYPHIMURIUM, Strain/Indicator: TA100, Metabolic Activation: NONE, Method: PREINCUBATION
[6] = Test System: UDS RODENT HEPATOCYTES, Strain/Indicator: THY INCORP (NON-S-PHASE), Metabolic Activation: NONE, Method: AUTORADIOGRAPHY
[7] = Test System: AMES SALMONELLA TYPHIMURIUM, Strain/Indicator: TA98, Metabolic Activation: NONE, Method: PREINCUBATION
[8] = Test System: AMES SALMONELLA TYPHIMURIUM, Strain/Indicator: TA1535, Metabolic Activation: NONE, Method: PREINCUBATION
[9] = Test System: AMES SALMONELLA TYPHIMURIUM, Strain/Indicator: TA1537, Metabolic Activation: NONE, Method: PREINCUBATION

With `O=Cc1ccc(COS(=O)(=O)O)o1` the mutagenic call [1] was “inactive; negative”, the mutagenic call [2] was “active; positive” and the mutagenic call (Test System: AMES SALMONELLA TYPHIMURIUM, Strain/Indicator: TA104, Metabolic Activation: NONE, Method: PREINCUBATION) was “active; positive”.

With `O=C(NC(=S)NNC(=O)c1cc(O)ccc1O)c1ccccc1` the mutagenic call (Test System: AMES SALMONELLA TYPHIMURIUM, Strain/Indicator: TA1530, Metabolic Activation: NONE, Method: STANDARD PLATE) was “active; positive”.

In the case of `CC1(C)CCC2(C(=O)OC3OC(CO)C(O)C(O)C3O)CCC3(CO)C(=CCC4C5(C)CC(O)C(O)C(C)(C(=O)OC6OC(CO)C(O)C(O)C6O)C5CCC43C)C2C1` (stereo not drawn), the mutagenic call (End Point: In vivo micronucleus, Test System: Bone marrow polychromatic erythrocytes, Species: Mouse, Strain/Sex: C57BL/6J/Male, Route: Intraperitoneal) is reported as “inactive; negative; protective when coadministered with gamma radiation”, the mutagenic call [3] is reported as “inactive; negative. reevaluation of results: negative” and the mutagenic call [4] is reported as “inactive; negative. reevaluation of results: negative”.

`Cc1cc([N+](=O)[O-])ccc1N` was tested, and the mutagenic call (End Point: IN VITRO CHROMOSOMAL ABERRATIONS, Test System: CHL CELLS, Metabolic Activation: NONE) was “active; positive (ploidy changes)”, the mutagenic call (End Point: IN VITRO CHROMOSOMAL ABERRATIONS, Test System: CHL CELLS, Metabolic Activation: RAT, LIVER, S-9, SODIUM PHENOBARBITAL AND 5,6-BENZOFLAVONE) was “inactive; negative; authors report equivocal results for ploidy changes at 0.25 mg/ml and” and the mutagenic call (End Point: IN VITRO CHROMOSOMAL ABERRATIONS, Test System: CHL/IU CELLS, Metabolic Activation: NONE) was “active; positive (numerical aberrations)”. For the same compound, the mutagenic call (End Point: IN VITRO MICRONUCLEUS, Test System: CHL/IU CELLS, Metabolic Activation: NONE) was “inactive; negative”, the mutagenic call (Test System: AMES SALMONELLA TYPHIMURIUM, Strain/Indicator: TA98, Metabolic Activation: RAT, LIVER, S-9, PCB, Method: PREINCUBATION) was “inactive; negative” and the mutagenic call [5] was “inactive; negative”. For the same compound, the mutagenic call (Test System: AMES SALMONELLA TYPHIMURIUM, Strain/Indicator: TA100, Metabolic Activation: RAT, LIVER, S-9, KANECHLOR 500, Method: PREINCUBATION) was “inactive; negative” and the mutagenic call [6] was “inactive; negative”.

`Cc1ccc2[nH]c3c(C)ccc(C)c3c2c1` was tested, and the mutagenic call [1] was “inactive; negative”, the mutagenic call (Test System: AMES SALMONELLA TYPHIMURIUM, Strain/Indicator: TA98, Metabolic Activation: RAT LIVER S-9, AROCLOR 1254, Method: STANDARD PLATE) was “active; positive” and the mutagenic call [2] was “inactive; negative”. The mutagenic call (Test System: AMES SALMONELLA TYPHIMURIUM, Strain/Indicator: TA100, Metabolic Activation: RAT LIVER S-9, AROCLOR 1254, Method: STANDARD PLATE) was “inactive; negative”.

In the case of `COc1cc2c(c3oc(=O)c4c(c13)CCC4=O)[C@@]1(O)[C@@H](O2)O[C@@H]2O[C@@H]21`, the mutagenic call (Test System: AMES SALMONELLA TYPHIMURIUM, Strain/Indicator: TA100, Metabolic Activation: NONE, Method: MICROSUSPENSION) is reported as “active; positive” and the mutagenic call (Test System: AMES SALMONELLA TYPHIMURIUM, Strain/Indicator: TA100, Metabolic Activation: RAT, LIVER, S-9, AROCLOR 1254, Method: MICROSUSPENSION) is reported as “active; positive”.

With `O=S(=O)(O)NC1CCCCC1` the mutagenic call (Test System: CHINESE HAMSTER OVARY, Strain/Indicator: CHO-K1-BH4 (HGPRT), Metabolic Activation: NONE, Method: STANDARD PLATE) was “inactive; negative”, the mutagenic call (Test System: CHINESE HAMSTER OVARY, Strain/Indicator: CHO-K1-BH4 (HGPRT), Metabolic Activation: RAT, LIVER, S-9, Method: STANDARD PLATE) was “inactive; negative” and the mutagenic call [6] was “inactive; negative”.

In the case of `Cc1cc(-c2ccc(N/N=C3\C(=O)c4c(O)cc(S(=O)(=O)O)cc4C=C3S(=O)(=O)O)c(C)c2)ccc1N/N=C1\C(=O)c2c(O)cc(S(=O)(=O)O)cc2C=C1S(=O)(=O)O`, the mutagenic call (Test System: AMES SALMONELLA TYPHIMURIUM, Strain/Indicator: TA98, Metabolic Activation: HAMSTER, LIVER, S-9, AROCLOR 1254 (10%), Method: PREINCUBATION) is reported as “inactive; negative”, the mutagenic call [7] is reported as “inactive; negative” and the mutagenic call (Test System: AMES SALMONELLA TYPHIMURIUM, Strain/Indicator: TA98, Metabolic Activation: RAT, LIVER, S-9, AROCLOR 1254 (10%), Method: PREINCUBATION) is reported as “inactive; negative”. The mutagenic call (Test System: AMES SALMONELLA TYPHIMURIUM, Strain/Indicator: TA100, Metabolic Activation: HAMSTER, LIVER, S-9, AROCLOR 1254 (10%), Method: PREINCUBATION) was “inactive; negative”, the mutagenic call [5] was “inactive; negative” and the mutagenic call (Test System: AMES SALMONELLA TYPHIMURIUM, Strain/Indicator: TA100, Metabolic Activation: RAT, LIVER, S-9, AROCLOR 1254 (10%), Method: PREINCUBATION) was “inactive; negative”. For the same compound, the mutagenic call (Test System: AMES SALMONELLA TYPHIMURIUM, Strain/Indicator: TA1535, Metabolic Activation: HAMSTER, LIVER, S-9, AROCLOR 1254 (10%), Method: PREINCUBATION) was “inactive; negative”, the mutagenic call [8] was “inactive; negative” and the mutagenic call (Test System: AMES SALMONELLA TYPHIMURIUM, Strain/Indicator: TA1535, Metabolic Activation: RAT, LIVER, S-9, AROCLOR 1254 (10%), Method: PREINCUBATION) was “inactive; negative”. The mutagenic call (Test System: AMES SALMONELLA TYPHIMURIUM, Strain/Indicator: TA1537, Metabolic Activation: HAMSTER, LIVER, S-9, AROCLOR 1254 (10%), Method: PREINCUBATION) was “inactive; negative”, the mutagenic call [9] was “inactive; negative” and the mutagenic call (Test System: AMES SALMONELLA TYPHIMURIUM, Strain/Indicator: TA1537, Metabolic Activation: RAT, LIVER, S-9, AROCLOR 1254 (10%), Method: PREINCUBATION) was “inactive; negative”. The mutagenic call (Test System: AMES SALMONELLA TYPHIMURIUM, Strain/Indicator: TA1538, Metabolic Activation: RAT, LIVER, S-9, AROCLOR 1254, Method: STANDARD PLATE) was “inactive; negative”.

With `Cc1cc2c3c(ccc2c2ccccc12)C(O)C(O)[C@@H]1O[C@@H]31` (stereo partly drawn) the mutagenic call [5] was “inactive; negative”.

For `CCn1c2ccccc2c2cc(N)ccc21`, the mutagenic call (Test System: AMES SALMONELLA TYPHIMURIUM, Strain/Indicator: TA98, Metabolic Activation: HAMSTER, LIVER, S-9, AROCLOR 1254, Method: PREINCUBATION) was “active; positive”, the mutagenic call [7] was “inactive; negative” and the mutagenic call (Test System: AMES SALMONELLA TYPHIMURIUM, Strain/Indicator: TA98, Metabolic Activation: RAT, LIVER, S-9, AROCLOR 1254, Method: PREINCUBATION) was “active; positive”. For the same compound, the mutagenic call (Test System: AMES SALMONELLA TYPHIMURIUM, Strain/Indicator: TA100, Metabolic Activation: HAMSTER, LIVER, S-9, AROCLOR 1254, Method: PREINCUBATION) was “active; positive”, the mutagenic call [5] was “inactive; negative” and the mutagenic call (Test System: AMES SALMONELLA TYPHIMURIUM, Strain/Indicator: TA100, Metabolic Activation: RAT, LIVER, S-9, AROCLOR 1254, Method: PREINCUBATION) was “active; positive”. The mutagenic call (Test System: AMES SALMONELLA TYPHIMURIUM, Strain/Indicator: TA1535, Metabolic Activation: HAMSTER, LIVER, S-9, AROCLOR 1254, Method: PREINCUBATION) was “inactive; negative”, the mutagenic call [8] was “inactive; negative” and the mutagenic call (Test System: AMES SALMONELLA TYPHIMURIUM, Strain/Indicator: TA1535, Metabolic Activation: RAT, LIVER, S-9, AROCLOR 1254, Method: PREINCUBATION) was “inactive; negative”. The mutagenic call (Test System: AMES SALMONELLA TYPHIMURIUM, Strain/Indicator: TA1537, Metabolic Activation: HAMSTER, LIVER, S-9, AROCLOR 1254, Method: PREINCUBATION) was “active; positive”, the mutagenic call [9] was “inactive; negative” and the mutagenic call (Test System: AMES SALMONELLA TYPHIMURIUM, Strain/Indicator: TA1537, Metabolic Activation: RAT, LIVER, S-9, AROCLOR 1254, Method: PREINCUBATION) was “active; positive”.

With `ClC/C=C/CCl` the mutagenic call (Test System: AMES SALMONELLA TYPHIMURIUM, Strain/Indicator: TA98, Metabolic Activation: HAMSTER, LIVER, S-9, AROCLOR 1254 (10%), Method: STANDARD PLATE) was “active; positive”, the mutagenic call [1] was “active; positive” and the mutagenic call (Test System: AMES SALMONELLA TYPHIMURIUM, Strain/Indicator: TA98, Metabolic Activation: RAT, LIVER, S-9, AROCLOR 1254 (10%), Method: STANDARD PLATE) was “active; positive”. For the same compound, the mutagenic call (Test System: AMES SALMONELLA TYPHIMURIUM, Strain/Indicator: TA100, Metabolic Activation: HAMSTER, LIVER, S-9, AROCLOR 1254 (10%), Method: STANDARD PLATE) was “active; positive”, the mutagenic call [2] was “active; positive” and the mutagenic call (Test System: AMES SALMONELLA TYPHIMURIUM, Strain/Indicator: TA100, Metabolic Activation: RAT, LIVER, S-9, AROCLOR 1254 (10%), Method: STANDARD PLATE) was “active; positive”. The mutagenic call [3] was “active; positive. reevaluation of results: inconclusive” and the mutagenic call [4] was “active; positive. reevaluation of results: positive”.
